These results are taken from patent US20210290732A1, “GLP-1R and GCGR Agonists, Formulations, and Methods of Use” (Spitfire Pharma LLC, priority 2020, published 2021).

Where “and” joins values, the source holds several entries; their conditions need not be identical. Identical values can stand only once. Like-named read-outs stand apart in the source and are kept apart here.

The subject of data set [1] is DIO-NASH mice. As to the kind of experiment: DIO-NASH mouse study, 12 weeks of QD dosing. It counts as in vivo. The protocol:
All mice entering the experiment have been pre-biopsied, stratified based on liver biopsy (only animals with fibrosis 1 or above and steatosis 2 or above are included) animals stratified into groups based on Col1a1 immunostaining. […] Body weight (BW) was measured daily for the entire study period, food intake daily for the first 14 days then weekly until study end. Terminal plasma was measured for ALT/AST/TG/TC levels. Terminal liver removal and sampling was carried out for pre to post NAFLD Activity Score (NAS; HE staining) including Fibrosis Stage (Picrosirius red, PSR). Terminal histology was carried out for steatosis, Col1a1 and galectin-3 quantitation. Terminal liver workup included TG+TC (extraction and measurement). Terminal liver biopsies were set up in: 1) 4% PFA for histology, 2) fresh frozen liver for biochemistry, 3) fresh frozen liver for RNA extraction and RNAseq.

In data set [2] the target is T1, human GLP-1R (Homo sapiens, UniProt P43220).
T1 construct: host or cells: CHO-K1
T1 sequence (P43220 24-463): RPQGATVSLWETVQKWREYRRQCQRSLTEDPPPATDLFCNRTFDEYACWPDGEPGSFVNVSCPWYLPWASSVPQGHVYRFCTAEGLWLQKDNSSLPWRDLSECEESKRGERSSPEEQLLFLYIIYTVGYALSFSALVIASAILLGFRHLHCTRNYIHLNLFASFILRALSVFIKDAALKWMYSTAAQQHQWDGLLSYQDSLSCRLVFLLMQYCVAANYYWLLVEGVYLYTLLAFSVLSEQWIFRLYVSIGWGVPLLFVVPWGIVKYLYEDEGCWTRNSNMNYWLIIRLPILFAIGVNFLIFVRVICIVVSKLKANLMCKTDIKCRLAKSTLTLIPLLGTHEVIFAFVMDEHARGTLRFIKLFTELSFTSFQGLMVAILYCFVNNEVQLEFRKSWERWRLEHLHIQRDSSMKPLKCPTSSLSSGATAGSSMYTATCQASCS
The experiment in a line: cAMP receptor activation assay, human GLP-1R cloned into CHO cells (DiscoverX LeadHunter / cAMP Hunter). It counts as cell-based.
Experimental: (§1) Cellular assays were carried out using standard cellular assays (DiscoveRx, LeadHunter assays) using readout of cAMP stimulation or arrestin activation. Compounds were weighed precisely in an amount of approximately 1 mg and shipped to DiscoverX (Fremont, Calif.) for dilution and assay. […] Assays were carried out in the presence of 0.1% ovalbumin. […] Use of 0.1% ovalbumin can avoid this problem.
(§2) Assays were carried out in the presence of 0.1% ovalbumin. […] Use of 0.1% ovalbumin can avoid this problem.
(§3) Receptor activation assays were performed at DiscoverX laboratories (Fremont, Calif.) using human GLP-1R and GCGR cloned into Chinese Hamster Ovary (CHO) cells (LeadHunter Discovery Services; assay product 86-0007D cAMP Hunter™ using huGLP1R and huGCGR; whole cell cAMP accumulation assays; cell lines used were cAMP Hunter™ CHO-K1 GCGR Gs Cell Line, catalog 95-0042C2 and cAMP Hunter™ CHO-K1 GLP1 Gs Cell Line, catalog 95-0062C2; readout of accumulated cAMP was made using readout HitHunter cAMP XS+ assay). Cell lines are maintained at DiscoverX and were incubated with test agents for 30 m at 37° C. for accumulation of cAMP. […] Results described herein are from single assays performed on cells in duplicate and data were replotted in Prism 5 to provide pEC50 (SE) data.
(§4) In vitro data are presented as pEC50 (SE) determined in Prism 5 by nonlinear regression analysis of the raw fluorescence data normalized by corresponding response to internal standards (see Supporting Information for data plots).

Data set [3] addresses GCGR (Homo sapiens, UniProt P47871). As to the kind of experiment: cAMP receptor activation assay, human GCGR cloned into CHO cells (DiscoverX LeadHunter / cAMP Hunter). The data set is classed as cell-based. Details: host or cells: CHO-K1.
Experimental: as §1, §2, §3, §4
Data set [4] in a line: CMC of Polysorbate 80 in F58 buffer pH 7.7 with added ALT-801 by surface tensiometry. The data set is classed as physicochemical. The source says:
CMC shifts are simply calculated as CMC in the presence of the ALT-801 less the CMC for the surfactant alone in solution.

Setting [5] is: ratio of EC50 in 0.1% BSA and 0.1% ovalbumin.

Chain of GCGR (P47871 26-477): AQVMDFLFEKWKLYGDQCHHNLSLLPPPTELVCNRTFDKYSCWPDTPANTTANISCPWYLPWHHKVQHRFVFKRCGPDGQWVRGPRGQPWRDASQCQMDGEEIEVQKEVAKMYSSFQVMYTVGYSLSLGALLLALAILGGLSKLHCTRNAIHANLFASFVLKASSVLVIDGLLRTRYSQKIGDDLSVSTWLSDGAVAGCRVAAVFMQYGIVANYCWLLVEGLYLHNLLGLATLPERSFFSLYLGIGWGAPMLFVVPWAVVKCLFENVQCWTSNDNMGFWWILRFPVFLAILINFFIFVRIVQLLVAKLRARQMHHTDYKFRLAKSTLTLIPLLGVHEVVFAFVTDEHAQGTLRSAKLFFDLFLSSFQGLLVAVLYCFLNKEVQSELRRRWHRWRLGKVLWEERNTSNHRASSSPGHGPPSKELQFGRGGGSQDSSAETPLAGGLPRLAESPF

Consider `CSc1ccc(C(=O)/C=C/c2cc(C)c(OC(C)(C)C(=O)O)c(C)c2)cc1` [elafibranor], for which, in data set [1] (ALT-801 5 and 10 nmol/kg, elafibranor 78 μmol/kg, semaglutide 10 nmol/kg), the “body weight compared to NASH control (p≤0.001)” value is listed as “statistically significantly decreased body weight”. The “NAFLD activity score (NAS) reduction compared to the start of treatment” value in data set [1] (NASH mice, 78 μmol/kg PO QD, 12 weeks) is 42%. For the same compound, in data set [1] (NASH mice, liver RNAseq), the “expression of cell death genes vs NASH vehicle control” value was “No statistical differences”; the “expression of genes affecting fat usage and transport vs NASH vehicle control” value is “significantly lower GPAT2 (p<0.001) and GPAT4 (p<0.001)”; the “expression of liver inflammation genes (FOSB, JUN, TLR4) vs NASH vehicle control” value is reported as “No statistically significant changes”. In addition, the “number of differentially expressed genes (liver RNA sequencing)” value in data set [1] (NASH mice, high dose ALT-801, elafibranor, semaglutide) is recorded as ~5800.
`CC[C@H](C)[C@H](NC(=O)[C@H](Cc1ccccc1)NC(=O)[C@H](CCC(=O)O)NC(=O)[C@@H]1CCCCNC(=O)CC[C@H](NC(=O)[C@H](CC(=O)O)NC(=O)[C@H](CC(C)C)NC(=O)[C@H](Cc2ccc(O)cc2)NC(=O)[C@H](CCCCN)NC(=O)[C@H](CO)NC(=O)[C@H](Cc2ccc(O)cc2)NC(=O)[C@H](CC(=O)O)NC(=O)[C@H](CO)NC(=O)[C@@H](NC(=O)[C@H](Cc2ccccc2)NC(=O)[C@@H](NC(=O)CNC(=O)[C@H](CCC(N)=O)NC(=O)C(C)(C)NC(=O)[C@@H](N)Cc2c[nH]cn2)[C@@H](C)O)[C@@H](C)O)C(=O)N[C@@H](CCC(N)=O)C(=O)N[C@@H](C)C(=O)N[C@@H](C)C(=O)N1)C(=O)N[C@@H](CCCCNC(=O)[C@H]1O[C@@H](OCCCCCCCCCCCCCCCC(=O)O)[C@H](O)[C@@H](O)[C@@H]1O)C(=O)N[C@@H](Cc1c[nH]c2ccccc12)C(=O)N[C@@H](CC(C)C)C(=O)N[C@@H](CC(C)C)C(=O)N[C@@H](CCC(N)=O)C(=O)N[C@H](C(N)=O)[C@@H](C)O` [EU-A1871]: the EC50 in data set [2] (EC50 cAMP GLP-1 R (pM) 0.1% BSA, Table 5, 0.1% BSA) was found to be 162 pM; in data set [3] (EC50 cAMP glucagon R (pM) 0.1% BSA, Table 5, 0.1% BSA), 461 pM.
With `CCCCCCCCCCCCCCCCO[C@@H]1O[C@H](CO[C@H]2O[C@H](C(=O)NCCCC[C@@H]3NC(=O)[C@@H](NC(=O)[C@H](CC(=O)O)NC(=O)[C@H](CC(C)C)NC(=O)[C@H](Cc4ccc(O)cc4)NC(=O)[C@H](CCCCN)NC(=O)[C@H](CO)NC(=O)[C@H](Cc4ccc(O)cc4)NC(=O)[C@H](CC(=O)O)NC(=O)[C@H](CO)NC(=O)[C@@H](NC(=O)[C@H](Cc4ccccc4)NC(=O)[C@@H](NC(=O)CNC(=O)[C@H](CCC(N)=O)NC(=O)C(C)(C)NC(=O)[C@@H](N)Cc4c[nH]cn4)[C@@H](C)O)[C@@H](C)O)CCC(=O)NCCCC[C@@H](C(=O)N[C@@H](CCC(=O)O)C(=O)N[C@@H](Cc4ccccc4)C(=O)N[C@H](C(=O)N[C@@H](CCC(N)=O)C(=O)N[C@@H](Cc4c[nH]c5ccccc45)C(=O)N[C@@H](CC(C)C)C(=O)N[C@@H](CC(C)C)C(=O)N[C@@H](CCC(N)=O)C(=O)N[C@H](C(N)=O)[C@@H](C)O)[C@@H](C)CC)NC(=O)[C@H](C)NC(=O)[C@H](C)NC3=O)[C@H](O)[C@H](O)[C@H]2O)[C@@H](O)[C@H](O)[C@H]1O` [EU-A1588], the “Ovalbumin vs. BSA - fold improv/worsen GLP-1 R” value in data set [2] (setting [5]) is on record as 5 fold. The “Ovalbumin vs. BSA - fold improv/worsen GCG R” value in data set [3] (setting [5]) is recorded as 6 fold.
With `CC[C@H](C)[C@H](NC(=O)[C@H](Cc1ccccc1)NC(=O)[C@H](CCC(=O)O)NC(=O)[C@@H]1CCCCNC(=O)CC[C@H](NC(=O)[C@H](CC(=O)O)NC(=O)[C@H](CC(C)C)NC(=O)[C@H](Cc2ccc(O)cc2)NC(=O)[C@H](CCCCN)NC(=O)[C@H](CO)NC(=O)[C@H](Cc2ccc(O)cc2)NC(=O)[C@H](CC(=O)O)NC(=O)[C@H](CO)NC(=O)[C@@H](NC(=O)[C@H](Cc2ccccc2)NC(=O)[C@@H](NC(=O)CNC(=O)[C@H](CCC(N)=O)NC(=O)C(C)(C)NC(=O)[C@@H](N)Cc2c[nH]cn2)[C@@H](C)O)[C@@H](C)O)C(=O)N[C@@H](CCC(N)=O)C(=O)N[C@@H](C)C(=O)N[C@@H](C)C(=O)N1)C(=O)N[C@@H](CCCCNC(=O)[C@H]1O[C@@H](OCCCCCCCCCCCCCCCCCC(=O)O)[C@H](O)[C@@H](O)[C@@H]1O)C(=O)N[C@@H](Cc1c[nH]c2ccccc12)C(=O)N[C@@H](CC(C)C)C(=O)N[C@@H](CC(C)C)C(=O)N[C@@H](CCC(N)=O)C(=O)N[C@H](C(N)=O)[C@@H](C)O` [analogue 16], the EC50 in data set [2] (0.1% BSA in assay buffer, read-out: EC50 GLP-1R) was found to be 1270 pM; in data set [3] (cAMP, CHO cells, 0.1% OVA containing buffers, read-out: EC50 hGCGR) it was 86 pM.
Take `CCCCCCCCCCCCO[C@@H]1O[C@H](C(=O)O)[C@@H](O[C@H]2O[C@H](C(=O)NCCCC[C@H](NC(=O)[C@@H](NC(=O)[C@H](Cc3ccccc3)NC(=O)[C@H](CCC(=O)O)NC(=O)[C@@H]3CCCCNC(=O)CC[C@H](NC(=O)[C@H](CC(=O)O)NC(=O)[C@H](CC(C)C)NC(=O)[C@H](Cc4ccc(O)cc4)NC(=O)[C@H](CCCCN)NC(=O)[C@H](CO)NC(=O)[C@H](Cc4ccc(O)cc4)NC(=O)[C@H](CC(=O)O)NC(=O)[C@H](CO)NC(=O)[C@@H](NC(=O)[C@H](Cc4ccccc4)NC(=O)[C@@H](NC(=O)CNC(=O)[C@H](CCC(N)=O)NC(=O)C(C)(C)NC(=O)[C@@H](N)Cc4c[nH]cn4)[C@@H](C)O)[C@@H](C)O)C(=O)N[C@@H](CCC(N)=O)C(=O)N[C@@H](C)C(=O)N[C@@H](C)C(=O)N3)[C@@H](C)CC)C(=O)N[C@@H](Cc3c[nH]c4ccccc34)C(=O)N[C@@H](CC(C)C)C(=O)N[C@@H](CC(C)C)C(=O)N[C@@H](CCC(N)=O)C(=O)N[C@H](C(N)=O)[C@@H](C)O)[C@@H](O)[C@H](O)[C@H]2O)[C@H](O)[C@H]1O` [analogue 7]: the EC50 in data set [2] is 50.1 pM; in data set [3] (cAMP, CHO cells, 0.1% BSA containing buffers, read-out: pEC50 (SE) huGCGR (converted)) it was 14.8 pM.
Take Polysorbate 80: in data set [4] (5.0 mg/ml ALT-801), the “CMC Shift Due to ALT-801” value was 5.16 mg/mL, the “Extent of Interaction mg PS80/mg ALT-801” value is reported as 1.03 mg/mg and the “Extent of Interaction moles PS80/molesALT-801” value was 3.05 mole/mole. In data set [4] (10.0 mg/ml ALT-801), the “CMC Shift Due to ALT-801” value was 10.32 mg/mL, the “Extent of Interaction mg PS80/mg ALT-801” value was determined as 1.03 mg/mg and the “Extent of Interaction moles PS80/molesALT-801” value came to 3.05 mole/mole. For the same compound, in data set [4] (F58 buffer pH 7.7, 5.0 mg/ml ALT-801), the “Polysorbate 80 CMC Value 5.0 mg/ml ALT-801, Average” value worked out at 5.34 mg/mL. Besides, the “Polysorbate 80 CMC Value 5.0 mg/ml ALT-801” value in data set [4] (F58 buffer pH 7.7, 5.0 mg/ml ALT-801, single test) was 5.35 mg/mL and 5.33 mg/mL. Besides, the “Polysorbate 80 CMC Value 10.0 mg/ml ALT-801, Average” value in data set [4] (F58 buffer pH 7.7, 10.0 mg/ml ALT-801) was found to be 10.50 mg/mL. Moreover, the “Polysorbate 80 CMC Value 10.0 mg/ml ALT-801” value in data set [4] (F58 buffer pH 7.7, 10.0 mg/ml ALT-801, single test) is 10.49 mg/mL and 10.50 mg/mL. In data set [4] (F58 buffer pH 7.7, no ALT-801), the “Polysorbate 80 CMC Valve No ALT-801, Average” value was determined as 0.183 mg/mL. Besides, the “Polysorbate 80 CMC Valve No ALT-801” value in data set [4] (F58 buffer pH 7.7, no ALT-801, single test) was 0.182 mg/mL and 0.183 mg/mL. Further, in data set [4] ([…] ALT-801), the “Extent of Interaction mg PS80/mg ALT-801” value is 1.03 mg/mg and the “Extent of Interaction moles PS80/molesALT-801” value is on record as 3.05 mole/mole.
On to `CCCCCCCCCCCCCCO[C@@H]1O[C@H](C(=O)NCCCC[C@H](N)C(=O)NCCCC[C@H](NC(=O)[C@@H](NC(=O)[C@H](Cc2ccccc2)NC(=O)[C@H](CCC(=O)O)NC(=O)[C@@H]2CCCCNC(=O)CC[C@H](NC(=O)[C@H](CC(=O)O)NC(=O)[C@H](CC(C)C)NC(=O)[C@H](Cc3ccc(O)cc3)NC(=O)[C@H](CCCCN)NC(=O)[C@H](CO)NC(=O)[C@H](Cc3ccc(O)cc3)NC(=O)[C@H](CC(=O)O)NC(=O)[C@H](CO)NC(=O)[C@@H](NC(=O)[C@H](Cc3ccccc3)NC(=O)[C@@H](NC(=O)CNC(=O)[C@H](CCC(N)=O)NC(=O)C(C)(C)NC(=O)[C@@H](N)Cc3c[nH]cn3)[C@@H](C)O)[C@@H](C)O)C(=O)N[C@@H](CCC(N)=O)C(=O)N[C@@H](C)C(=O)N[C@@H](C)C(=O)N2)[C@@H](C)CC)C(=O)N[C@@H](Cc2c[nH]c3ccccc23)C(=O)N[C@@H](CC(C)C)C(=O)N[C@@H](CC(C)C)C(=O)N[C@@H](CCC(N)=O)C(=O)N[C@H](C(N)=O)[C@@H](C)O)[C@@H](O)[C@H](O)[C@H]1O` [analogue 13], for which the “Selectivity Ratio GLP-1R vs GCGR” value in data set [2] (SR = GCGR EC50/GLP-1 EC50, 0.1% BSA) stood at 5. For the same compound, the EC50 in data set [2] (cAMP, CHO cells, 0.1% BSA containing buffers, read-out: pEC50 (SE) hu GLP-1 (converted)) was 37.2 pM. The “Selectivity Ratio (SR=GCGR EC50/GLP-1 EC50)” value in data set [3] is 5.
